Measured values taken from the NIST ThermoML archive (doi:10.1021/je500867u).
Numbers after ± are expanded uncertainties.

Conditions: Crystal; visual observation

- Normal melting temperature: 288.0 ± 0.5 °C
Compound: Nc1ccc(S(=O)(=O)O)cc1 [4-aminobenzenesulfonic acid]
